Data as given in patent US6933287B1, “Dramatic simplification of a method to treat neoplastic disease by radiation” (priority 1999, dated 2005).

What was measured:
[1] = Half life of CldC with H4U in mice; type: in vivo; conditions: effect of H4U
Source text: (§1) Furthermore, CldC plus H4U was not toxic to dogs or monkeys. In monkeys and mice, H4U increased the half life of CldC. This is a very important indicator of the efficacy of CldC plus H4U in the treatment of diseases, in particular tumors in humans.

[2] = Half life of CldC with H4U in monkeys; type: in vivo; conditions: effect of H4U
Source text: as §1

[3] = tested on: radiation induced fibrosarcoma, RIF-1; conditions: toxic doses of CldC; cited from earlier work
thymidylate synthetase [4] = molecular target: T1, thymidylate synthetase (Lacticaseibacillus casei, UniProt P00469); conditions: read-out: Ki for the inhibition of thymidylate synthetase; cited from earlier work
T1 sequence (P00469 whole entry): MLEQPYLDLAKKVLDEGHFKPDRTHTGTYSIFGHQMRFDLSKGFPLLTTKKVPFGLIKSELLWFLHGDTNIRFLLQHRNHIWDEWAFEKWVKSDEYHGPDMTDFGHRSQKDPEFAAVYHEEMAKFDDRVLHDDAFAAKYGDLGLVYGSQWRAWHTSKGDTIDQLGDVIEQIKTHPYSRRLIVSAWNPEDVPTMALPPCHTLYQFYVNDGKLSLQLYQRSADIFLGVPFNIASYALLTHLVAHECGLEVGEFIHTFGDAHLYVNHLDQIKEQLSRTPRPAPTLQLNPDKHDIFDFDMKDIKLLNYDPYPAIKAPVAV

thymidylate synthetase [5] = molecular target: T1, thymidylate synthetase; conditions: cited from earlier work

SMILES | Ki (thymidylate synthetase [4]) [nM] | other results
O=C1NC(O)CCN1[C@@H]1O[C@H](CO)[C@@H](O)[C@H]1O (some centres unmarked) [H4U, tetrahydrouridine] |  | half life of CldC [1]: increased; half life of CldC [2]: increased
Nc1nc(=O)n([C@H]2C[C@H](O)[C@@H](CO)O2)cc1Cl [CldC, 5-chloro-2′-deoxycytidine] |  | dose enhancement ratio [3]: 1.6
O=c1[nH]c(=O)n([C@H]2C[C@H](O)[C@@H](COP(=O)(O)O)O2)cc1I [IdUMP] | 1600 | 
O=c1[nH]c(=O)n([C@H]2C[C@H](O)[C@@H](COP(=O)(O)O)O2)cc1Br [BrdUMP] | 1400 | 
O=c1[nH]c(=O)n([C@H]2C[C@H](O)[C@@H](COP(=O)(O)O)O2)cc1Cl [CldUMP] | 190 | dehalogenation by thymidylate synthetase (thymidylate synthetase [5]): not dehalogenated
O=c1[nH]c(=O)n([C@H]2C[C@H](O)[C@@H](COP(=O)(O)O)O2)cc1F [FdUMP] | 15 | 
